US7498358B2, “Human ADAM-10 inhibitors” (Exelixis, Inc., priority 2001, dated 2009)
Read-outs that look alike come from different tables or passages of the source.

What was measured:
various metalloproteases [1] = assay: in vitro inhibition of various metalloproteases (Table 4); format: biochemical; conditions: Table 4, in vitro
Description: (§1) Inhibition is indicated as IC50 with the following key: A=IC50 less than 50 nM, B=IC50 greater than 50 nM, but less than 1000 nM, C=IC50 greater than […], but less than 20,000 nM, and D=IC50 greater than 20,000 nM.

hADAM-10 = biological target: T1, hADAM-10 (UniProt O14672); assay: ADAM-10 enzyme assay: cleavage of fluorogenic 10-residue peptide (DABCYL/EDANS); format: biochemical, human; conditions: Table 4, in vitro
T1 sequence (O14672 1-748): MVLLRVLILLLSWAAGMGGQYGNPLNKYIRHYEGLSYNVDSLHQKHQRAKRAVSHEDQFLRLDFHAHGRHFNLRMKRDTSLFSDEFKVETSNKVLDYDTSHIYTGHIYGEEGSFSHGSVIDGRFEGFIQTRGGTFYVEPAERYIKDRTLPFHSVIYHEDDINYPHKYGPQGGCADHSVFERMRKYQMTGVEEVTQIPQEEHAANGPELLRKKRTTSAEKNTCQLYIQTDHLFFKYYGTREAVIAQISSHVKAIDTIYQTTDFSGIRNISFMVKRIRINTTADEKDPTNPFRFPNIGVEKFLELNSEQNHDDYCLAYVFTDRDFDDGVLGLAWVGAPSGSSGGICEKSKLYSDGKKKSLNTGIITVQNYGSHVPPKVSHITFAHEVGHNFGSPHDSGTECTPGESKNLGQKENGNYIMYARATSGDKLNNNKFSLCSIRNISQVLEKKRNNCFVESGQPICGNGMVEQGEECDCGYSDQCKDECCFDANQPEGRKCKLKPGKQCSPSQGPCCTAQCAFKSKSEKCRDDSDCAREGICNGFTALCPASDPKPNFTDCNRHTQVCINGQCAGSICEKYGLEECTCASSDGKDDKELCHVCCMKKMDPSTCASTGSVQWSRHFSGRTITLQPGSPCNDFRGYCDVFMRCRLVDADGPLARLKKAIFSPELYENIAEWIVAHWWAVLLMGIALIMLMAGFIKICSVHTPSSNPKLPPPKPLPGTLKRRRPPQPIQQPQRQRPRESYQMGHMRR
Description: mADAM-10 or hADAM-10 activity was measured as the ability to cleave a 10-residue peptide (DABCYL-Leu-Leu-Ala-Gln-Lys-*-Leu-Arg-Ser-Ser-Arg-EDANS). […] Enzyme was diluted to a final active concentration of 5 nM in Buffer A (50 mM HEPES 8.0, 100 mM NaCl, 1 mM CaCl2 and 0.01% NP-40). Serial dilutions for compounds were performed ranging from 100 uM to 0.5 nM using a Beckman Biomek 2000 in polypropylene plates (Greiner). 20 μl of enzyme solution was added to 10 μl of compound in buffer A, and allowed to incubate for 15 min in 384 well black, Greiner, microtiter plates (#781076). 20 μl of substrate (12.5 uM in Buffer A) was then added, resulting in final reaction conditions of 2 nM ADAM-10, 5 μM substrate, and compound concentrations ranging from 20 uM to 0.1 nM. The reaction was incubated for 2 hr at RT, and fluorescence was measured at Ex355, Em460 on a Wallac Victor 2 fluorescence reader. For final analysis of potent inhibitors, a similar reaction was set up with a final active ADAM-10 concentration of 0.1 nM. This reaction was incubated for 16 hr at RT and fluorescence was read using identical conditions.
as §1

various metalloproteases [2] = biological target: various metalloproteases (Homo sapiens, UniProt P08254); assay: in vitro inhibition of various metalloproteases (Table 4); format: biochemical; conditions: MMP3; Table 4, in vitro
Sequence of various metalloproteases (Homo sapiens, UniProt P08254) (P08254 100-477): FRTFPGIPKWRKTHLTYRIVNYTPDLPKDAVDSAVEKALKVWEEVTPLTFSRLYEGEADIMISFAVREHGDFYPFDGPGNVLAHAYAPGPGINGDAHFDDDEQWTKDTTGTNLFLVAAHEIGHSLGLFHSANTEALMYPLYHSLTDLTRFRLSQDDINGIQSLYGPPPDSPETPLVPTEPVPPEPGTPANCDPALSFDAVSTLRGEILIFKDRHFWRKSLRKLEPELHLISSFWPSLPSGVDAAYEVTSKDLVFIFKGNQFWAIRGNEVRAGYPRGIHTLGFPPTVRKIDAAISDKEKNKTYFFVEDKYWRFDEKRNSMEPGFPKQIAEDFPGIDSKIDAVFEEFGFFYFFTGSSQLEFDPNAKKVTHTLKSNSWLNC
Description: as §1

various metalloproteases [3] = biological target: various metalloproteases (Homo sapiens, UniProt P45452); assay: as above; format: biochemical; conditions: MMP13; Table 4, in vitro
Description: as §1

various metalloproteases [4] = biological target: T2, various metalloproteases (Homo sapiens, UniProt P08253); assay: as above; format: biochemical; conditions: MMP2; Table 4, in vitro
T2 sequence (P08253 110-660): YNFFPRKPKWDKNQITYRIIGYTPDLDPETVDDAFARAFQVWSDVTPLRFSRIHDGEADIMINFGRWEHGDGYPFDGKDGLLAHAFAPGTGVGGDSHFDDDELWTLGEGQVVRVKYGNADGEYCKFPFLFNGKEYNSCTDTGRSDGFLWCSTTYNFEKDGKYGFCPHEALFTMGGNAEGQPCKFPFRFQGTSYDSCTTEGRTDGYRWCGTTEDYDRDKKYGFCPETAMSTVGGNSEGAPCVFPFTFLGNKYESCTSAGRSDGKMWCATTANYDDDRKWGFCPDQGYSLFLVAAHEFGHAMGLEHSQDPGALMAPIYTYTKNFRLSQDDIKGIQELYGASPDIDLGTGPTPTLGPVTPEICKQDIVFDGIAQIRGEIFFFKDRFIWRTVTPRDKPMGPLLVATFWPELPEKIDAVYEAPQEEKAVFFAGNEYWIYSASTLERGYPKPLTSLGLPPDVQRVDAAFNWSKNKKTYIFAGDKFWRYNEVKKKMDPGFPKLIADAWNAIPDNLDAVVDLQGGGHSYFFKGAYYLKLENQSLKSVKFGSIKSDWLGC
Description: as §1

Compound	IC50 (various metalloproteases [1]; MMP1, read-out: MMP1 IC50)	IC50 (various metalloproteases [1]; MMP2, read-out: MMP2 IC50)	IC50 (various metalloproteases [1]; MMP3, read-out: MMP3 IC50)	IC50 (various metalloproteases [1]; MMP13, read-out: MMP13 IC50)	IC50 (hADAM-10)	IC50 (various metalloproteases [1]; TACE, read-out: TACE IC50)	IC50 (various metalloproteases [1]; MMP8, read-out: MMP8 IC50)	IC50 (various metalloproteases [1]; MMP9, read-out: MMP9 IC50)	IC50 (various metalloproteases [2])	IC50 (various metalloproteases [3])	IC50 (various metalloproteases [4])
3-(1-{(Z)-[(aminocarbonyl)imino][(2-methoxyethyl)amino]methyl}piperidin-4-yl)-N^1-hydroxy-N^2-[(4-phenoxyphenyl)sulfonyl]alaninamide [Compound 44]	< 50 nM	< 50 nM	< 50 nM	< 50 nM	–	–	–	–	–	–	–
3-{1-[(Z)-(cyanoimino)(propylamino)methyl]piperidin-4-yl}-N^1-hydroxy-N^2-[(4-phenoxyphenyl)sulfonyl]alaninamide [Compound 41]	50 to 20000 nM	–	< 50 nM	< 50 nM	< 50 nM	< 50 nM	–	–	–	–	–
N=C(N)NCCC[C@@H](NS(=O)(=O)c1ccc(Oc2ccccc2)cc1)C(=O)NO [Compound 2, N^1-hydroxy-N^2-[(4-phenoxyphenyl)sulfonyl]-D-argininamide]	50 to 20000 nM	< 50 nM	50 to 1000 nM	< 50 nM	< 50 nM	50 to 1000 nM	< 50 nM	< 50 nM	–	–	–
NCCCC[C@@H](NS(=O)(=O)c1ccc(Oc2ccccc2)cc1)C(=O)NO [Compound 13, N^1-hydroxy-N^2-{[4-(phenyloxy)phenyl]sulfonyl}-D-lysinamide]	< 50 nM	< 50 nM	–	–	< 50 nM	50 to 1000 nM	–	–	–	–	–
N=C(N)NCCC[C@@H](NS(=O)(=O)c1ccc(Oc2ccc(F)cc2)nc1)C(=O)NO [Compound 68, N^2-({6-[(4-fluorophenyl)oxy]pyridin-3-yl}sulfonyl)-N^1-hydxoxy-D-argininamide]	50 to 20000 nM	–	50 to 1000 nM	< 50 nM	< 50 nM	–	–	–	–	–	–
N#Cc1ccc(C[C@@H](NS(=O)(=O)c2cc(F)c(Oc3ccc(F)cc3)c(F)c2)C(=O)NO)cc1 [Compound 72, 4-cyano-N^2-({3,5-difluoro-4-[(4-fluorophenyl)oxy]phenyl}sulfonyl)-N^1-hydroxy-D-phenylalaninamide]	50 to 20000 nM	< 50 nM	50 to 1000 nM	< 50 nM	50 to 1000 nM	–	–	–	–	–	–
CN(C)CC[C@@H](NS(=O)(=O)c1cc(F)c(Oc2ccc(Cl)cc2)c(F)c1)C(=O)NO [Compound 89, (2R)-N^2-[({4-[(4-chlorophenyl)oxy]-3,5-difluorophenyl}sulfonyl)amino]-4-(dimethylamino)-N^1-hydroxybutanamide]	–	< 50 nM	50 to 20000 nM	50 to 1000 nM	< 50 nM	–	–	–	–	–	–
CC(C)(SCC(=O)N1CCOCC1)[C@@H](NS(=O)(=O)c1cc(F)c(Oc2ccc(Cl)cc2)c(F)c1)C(=O)NO [Compound 91, N^2-({4-[(4-chlorophenyl)oxy]-3,5-difluorophenyl}sulfonyl)-N^1-hydroxy-3-[(2-morpholin-4-yl-2-oxoethyl)thio]-D-valinamide]	–	< 50 nM	–	–	–	–	–	–	–	–	–
O=C(NO)C(NS(=O)(=O)c1ccc(Oc2ccc(F)cc2)cc1)C1CCNCC1 (centres unmarked) [Compound 97, N^2-[({4-[(4-fluorophenyl)oxy]phenyl}sulfonyl)amino]-N^1-hydroxy-2-piperidin-4-ylacetamide]	–	–	< 50 nM	< 50 nM	< 50 nM	–	–	–	–	–	–
Cc1cc(C)cc(Oc2c(F)cc(S(=O)(=O)NC(C(=O)NO)C3CCNCC3)cc2F)c1 (centres unmarked) [Compound 99, N^2-[({4-[(3,5-dimethylphenyl)oxy]-3,5-difluorophenyl}sulfonyl)amino]-N^1-hydroxy-2-piperidin-4-ylacetamide]	–	< 50 nM	< 50 nM	< 50 nM	< 50 nM	–	–	–	–	–	–
NCC1CCC(C[C@H](NS(=O)(=O)c2ccc(-c3cccc(F)c3)nc2)C(=O)NO)CC1 (some centres unmarked) [Compound 105, 3-[4-(aminomethyl)cyclohexyl]-N^2-{[6-(3-fluorophenyl)pyridin-3-yl]sulfonyl}-N^1-hydroxyalaninamide]	–	–	–	–	< 50 nM	–	–	–	50 to 1000 nM	< 50 nM	< 50 nM
Cc1cc(C)cc(Oc2c(F)cc(S(=O)(=O)N[C@@H](CC3CCC(CN)CC3)C(=O)NO)cc2F)c1 (some centres unmarked) [Compound 106, 3-[4-(aminomethyl)cyclohexyl]-N^2-({4-[(3,5-dimethylphenyl)oxy]-3,5-difluorophenyl}sulfonyl)-N^1-hydroxyalaninamide]	–	–	–	–	50 to 20000 nM	–	–	–	–	–	–
N^6-[(E)-(cyanoimino)(propylamino)methyl]-N^1-hydroxy-N^2-[(4-phenoxyphenyl)sulfonyl]-D-lysinamide [Compound 23]	50 to 1000 nM	< 50 nM	< 50 nM	< 50 nM	< 50 nM	< 50 nM	–	–	–	–	–
